Data: ChEMBL document CHEMBL4354805, “Discovery of MK-8719, a Potent O-GlcNAcase Inhibitor as a Potential Treatment for Tauopathies” (J Med Chem, 2019)

Legend:
[1] = Cmax in telemetered dog at 380 mg/kg, po; format: ADME, organism-based, Canis lupus familiaris; set-up: dose 380 mg/kg, route oral; conditions: in vivo
Protein O-GlcNAcase = target: T1, Protein O-GlcNAcase (Homo sapiens, UniProt O60502); experiment: Inhibition of recombinant human OGA
T1 sequence (O60502 whole entry): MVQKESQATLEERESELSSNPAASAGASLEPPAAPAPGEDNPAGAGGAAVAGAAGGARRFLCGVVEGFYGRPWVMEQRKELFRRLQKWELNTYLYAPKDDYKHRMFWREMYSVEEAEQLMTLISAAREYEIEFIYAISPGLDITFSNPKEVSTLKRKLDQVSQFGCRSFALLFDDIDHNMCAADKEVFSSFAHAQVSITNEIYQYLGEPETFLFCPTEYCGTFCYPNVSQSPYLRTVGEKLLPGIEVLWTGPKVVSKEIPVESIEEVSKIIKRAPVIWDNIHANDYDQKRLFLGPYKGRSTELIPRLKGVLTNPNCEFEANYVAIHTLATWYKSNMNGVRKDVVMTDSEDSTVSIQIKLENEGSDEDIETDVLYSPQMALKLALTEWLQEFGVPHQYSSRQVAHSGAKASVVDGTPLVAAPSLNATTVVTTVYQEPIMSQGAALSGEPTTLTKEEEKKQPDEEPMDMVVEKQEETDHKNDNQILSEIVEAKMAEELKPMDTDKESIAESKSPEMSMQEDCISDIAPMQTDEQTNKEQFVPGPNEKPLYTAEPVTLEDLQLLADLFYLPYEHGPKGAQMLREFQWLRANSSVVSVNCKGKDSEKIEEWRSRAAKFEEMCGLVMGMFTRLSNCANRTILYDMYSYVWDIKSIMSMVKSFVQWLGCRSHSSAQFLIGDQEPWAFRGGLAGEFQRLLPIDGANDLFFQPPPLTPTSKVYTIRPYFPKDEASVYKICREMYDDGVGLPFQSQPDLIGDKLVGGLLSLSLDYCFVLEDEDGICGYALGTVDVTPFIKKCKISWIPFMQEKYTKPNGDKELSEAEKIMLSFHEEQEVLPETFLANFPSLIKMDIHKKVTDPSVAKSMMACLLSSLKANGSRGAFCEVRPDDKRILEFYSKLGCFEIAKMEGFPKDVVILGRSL

[2] = Fraction unbound in Beagle dog plasma at 1 uM by equilibrium dialysis; format: ADME, cell-free, Canis lupus familiaris
Cav1.2 = Cav1.2 (Homo sapiens, UniProt Q13936); experiment: Inhibition of Cav1.2 (unknown origin) at 30 uM
[3] = AUCN in Wistar Han rat at 10 mg/kg, po; format: ADME, organism-based; conditions: in vivo
[4] = Fraction unbound in Wistar Han rat plasma at 2.5 uM by equilibrium dialysis; format: ADME, cell-free
[5] = AUC (0 to 24 hrs) in rat brain at 10 mg/kg, po measured upto 24 hrs; format: ADME, organism-based; set-up: dose 10 mg/kg, time < 24 hr, route oral; conditions: in vivo
[6] = Ratio of drug uptake in rat brain to plasma at 3 mg/kg, po measured after 8 hrs; format: ADME, organism-based; conditions: read-out: BPR
[7] = Ratio of drug level in dog blood to plasma; format: ADME, cell-free, Canis lupus familiaris; conditions: whole blood
Rattus norvegicus [8] = experiment: Elevation of O-protein in rat brain at 3 mg/kg, po measured after 24 hrs relative to control; format: functional
Rattus norvegicus [9] = experiment: Hemodynamic activity in telemetered rat at 380 mg/kg, po; format: ADME, organism-based; conditions: in vivo
[10] = Volume of distribution at steady state in Beagle dog at 1 mg/kg, iv or 3 mg/kg, po; format: ADME, organism-based, Canis lupus familiaris; conditions: in vivo, read-out: Vdss
[11] = Toxicity in rat assessed as change in histomorphology at 1000 mg/kg, po administered for 7 days and measured on day 8; format: organism-based; conditions: in vivo, 168 h
[12] = Toxicity in rat assessed as change in serum chemistry at 1000 mg/kg, po administered for 7 days and measured on day 8; format: organism-based; conditions: in vivo, 168 h
Nav1.5 = Nav1.5 (Homo sapiens, UniProt Q14524); experiment: Inhibition of Nav1.5 (unknown origin) at 30 uM
[13] = AUC (0 to 24 hrs) in rat assessed as change in histomorphology at 1000 mg/kg, po administered for 7 days and measured on day 8; format: ADME, organism-based; set-up: time < 24 hr, dose 1000 mg/kg, route oral; conditions: in vivo
[14] = AUCN in Beagle dog at 3 mg/kg, po; format: ADME, organism-based, Canis lupus familiaris; conditions: in vivo
[15] = Protein binding in rat plasma; format: ADME, cell-free; conditions: read-out: PPB
Rattus norvegicus [16] = experiment: Elevation of O-protein in rat brain at 10 mg/kg, po measured after 24 hrs; format: functional
[17] = AUCN in rhesus monkey at 3 mg/kg, po; format: ADME, organism-based, Macaca mulatta; conditions: in vivo
[18] = Clearance in Beagle dog at 1 mg/kg, iv; format: ADME, organism-based, Canis lupus familiaris; conditions: in vivo
[19] = Ratio of drug level in monkey blood to plasma; format: ADME, cell-free, Macaca mulatta; conditions: rhesus monkey, whole blood
[20] = Oral bioavailability in Wistar Han rat at 10 mg/kg; format: ADME, organism-based; conditions: in vivo
[21] = Drug uptake in rat brain at 3 mg/kg, po measured after 24 hrs; format: ADME, organism-based; conditions: in vivo
[22] = Fraction unbound in human plasma at 2.5 uM by equilibrium dialysis; format: ADME, cell-free
IKs (KCNQ1) = target: T2, IKs (KCNQ1) (Homo sapiens, UniProt P51787); experiment: Inhibition of IKs (unknown origin) at 30 uM
T2 sequence (P51787 whole entry): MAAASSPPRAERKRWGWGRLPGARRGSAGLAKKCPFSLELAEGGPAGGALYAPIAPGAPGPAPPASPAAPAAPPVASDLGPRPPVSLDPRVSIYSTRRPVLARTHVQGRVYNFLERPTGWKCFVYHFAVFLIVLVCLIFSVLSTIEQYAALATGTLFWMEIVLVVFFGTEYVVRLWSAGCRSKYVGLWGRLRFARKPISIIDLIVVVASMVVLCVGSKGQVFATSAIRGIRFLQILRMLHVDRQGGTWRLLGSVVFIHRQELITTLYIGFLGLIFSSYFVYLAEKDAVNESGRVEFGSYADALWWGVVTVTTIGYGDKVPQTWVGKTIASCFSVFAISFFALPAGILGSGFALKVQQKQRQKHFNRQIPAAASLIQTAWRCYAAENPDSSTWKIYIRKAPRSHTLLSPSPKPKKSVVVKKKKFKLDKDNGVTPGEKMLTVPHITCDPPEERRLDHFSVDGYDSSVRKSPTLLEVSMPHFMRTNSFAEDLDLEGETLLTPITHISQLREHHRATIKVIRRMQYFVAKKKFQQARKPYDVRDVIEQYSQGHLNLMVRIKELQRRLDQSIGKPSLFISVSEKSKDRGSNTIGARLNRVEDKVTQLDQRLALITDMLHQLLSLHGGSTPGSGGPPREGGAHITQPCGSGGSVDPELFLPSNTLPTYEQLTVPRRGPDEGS

[23] = Ratio of drug level in rat blood to plasma; format: ADME, cell-free; conditions: whole blood
[24] = Protein binding in human plasma; format: ADME, cell-free; conditions: read-out: PPB

Sequence of Nav1.5 (Q14524 whole entry): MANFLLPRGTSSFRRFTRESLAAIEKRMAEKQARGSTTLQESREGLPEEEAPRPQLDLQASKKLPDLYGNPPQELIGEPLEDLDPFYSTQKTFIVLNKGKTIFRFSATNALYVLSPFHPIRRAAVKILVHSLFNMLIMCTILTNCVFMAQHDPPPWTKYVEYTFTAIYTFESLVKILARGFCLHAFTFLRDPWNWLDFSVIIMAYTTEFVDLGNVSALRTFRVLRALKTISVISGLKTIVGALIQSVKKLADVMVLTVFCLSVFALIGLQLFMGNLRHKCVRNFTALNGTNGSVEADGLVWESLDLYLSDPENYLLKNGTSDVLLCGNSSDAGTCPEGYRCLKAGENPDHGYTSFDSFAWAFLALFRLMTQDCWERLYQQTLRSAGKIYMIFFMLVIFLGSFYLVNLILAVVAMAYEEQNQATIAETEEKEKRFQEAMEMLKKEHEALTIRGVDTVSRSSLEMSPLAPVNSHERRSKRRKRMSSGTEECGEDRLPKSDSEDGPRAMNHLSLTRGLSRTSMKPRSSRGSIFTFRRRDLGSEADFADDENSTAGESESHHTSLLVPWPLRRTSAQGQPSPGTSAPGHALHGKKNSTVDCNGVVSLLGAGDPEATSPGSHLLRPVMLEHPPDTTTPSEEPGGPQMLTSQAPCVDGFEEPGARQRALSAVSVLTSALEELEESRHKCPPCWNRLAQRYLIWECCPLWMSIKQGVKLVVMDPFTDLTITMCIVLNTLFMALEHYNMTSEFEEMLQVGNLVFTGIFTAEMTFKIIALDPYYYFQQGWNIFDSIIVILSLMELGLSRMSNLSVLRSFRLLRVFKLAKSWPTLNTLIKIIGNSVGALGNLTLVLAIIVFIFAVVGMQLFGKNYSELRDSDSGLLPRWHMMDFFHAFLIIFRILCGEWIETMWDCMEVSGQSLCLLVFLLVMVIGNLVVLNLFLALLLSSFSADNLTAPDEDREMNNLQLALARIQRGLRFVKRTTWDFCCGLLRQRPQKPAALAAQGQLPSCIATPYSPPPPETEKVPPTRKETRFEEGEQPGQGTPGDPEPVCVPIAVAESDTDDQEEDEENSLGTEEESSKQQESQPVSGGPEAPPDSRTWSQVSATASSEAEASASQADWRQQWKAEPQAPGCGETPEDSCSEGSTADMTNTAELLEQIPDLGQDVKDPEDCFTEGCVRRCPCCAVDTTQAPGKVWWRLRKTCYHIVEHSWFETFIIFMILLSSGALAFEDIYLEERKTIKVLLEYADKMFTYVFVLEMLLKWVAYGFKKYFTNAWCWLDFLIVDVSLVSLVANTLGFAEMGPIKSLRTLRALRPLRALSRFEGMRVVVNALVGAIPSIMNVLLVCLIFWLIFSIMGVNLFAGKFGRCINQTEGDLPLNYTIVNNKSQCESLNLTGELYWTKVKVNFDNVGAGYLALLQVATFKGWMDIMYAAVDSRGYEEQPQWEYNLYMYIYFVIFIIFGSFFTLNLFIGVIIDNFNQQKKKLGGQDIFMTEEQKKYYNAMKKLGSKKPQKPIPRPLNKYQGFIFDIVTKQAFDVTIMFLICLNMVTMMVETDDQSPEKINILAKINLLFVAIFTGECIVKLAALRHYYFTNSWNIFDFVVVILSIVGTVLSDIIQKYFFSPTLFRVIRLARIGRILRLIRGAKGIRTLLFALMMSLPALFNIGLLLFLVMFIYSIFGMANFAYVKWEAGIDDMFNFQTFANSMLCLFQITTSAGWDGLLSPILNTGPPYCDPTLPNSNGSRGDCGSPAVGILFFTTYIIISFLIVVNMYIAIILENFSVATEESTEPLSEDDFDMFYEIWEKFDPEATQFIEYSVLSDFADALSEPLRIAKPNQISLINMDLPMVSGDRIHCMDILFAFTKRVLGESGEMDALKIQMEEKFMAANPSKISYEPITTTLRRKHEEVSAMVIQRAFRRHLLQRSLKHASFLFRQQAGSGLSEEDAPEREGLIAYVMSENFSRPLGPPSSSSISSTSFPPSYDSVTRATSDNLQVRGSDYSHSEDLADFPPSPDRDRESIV
Sequence of Cav1.2 (Q13936 whole entry): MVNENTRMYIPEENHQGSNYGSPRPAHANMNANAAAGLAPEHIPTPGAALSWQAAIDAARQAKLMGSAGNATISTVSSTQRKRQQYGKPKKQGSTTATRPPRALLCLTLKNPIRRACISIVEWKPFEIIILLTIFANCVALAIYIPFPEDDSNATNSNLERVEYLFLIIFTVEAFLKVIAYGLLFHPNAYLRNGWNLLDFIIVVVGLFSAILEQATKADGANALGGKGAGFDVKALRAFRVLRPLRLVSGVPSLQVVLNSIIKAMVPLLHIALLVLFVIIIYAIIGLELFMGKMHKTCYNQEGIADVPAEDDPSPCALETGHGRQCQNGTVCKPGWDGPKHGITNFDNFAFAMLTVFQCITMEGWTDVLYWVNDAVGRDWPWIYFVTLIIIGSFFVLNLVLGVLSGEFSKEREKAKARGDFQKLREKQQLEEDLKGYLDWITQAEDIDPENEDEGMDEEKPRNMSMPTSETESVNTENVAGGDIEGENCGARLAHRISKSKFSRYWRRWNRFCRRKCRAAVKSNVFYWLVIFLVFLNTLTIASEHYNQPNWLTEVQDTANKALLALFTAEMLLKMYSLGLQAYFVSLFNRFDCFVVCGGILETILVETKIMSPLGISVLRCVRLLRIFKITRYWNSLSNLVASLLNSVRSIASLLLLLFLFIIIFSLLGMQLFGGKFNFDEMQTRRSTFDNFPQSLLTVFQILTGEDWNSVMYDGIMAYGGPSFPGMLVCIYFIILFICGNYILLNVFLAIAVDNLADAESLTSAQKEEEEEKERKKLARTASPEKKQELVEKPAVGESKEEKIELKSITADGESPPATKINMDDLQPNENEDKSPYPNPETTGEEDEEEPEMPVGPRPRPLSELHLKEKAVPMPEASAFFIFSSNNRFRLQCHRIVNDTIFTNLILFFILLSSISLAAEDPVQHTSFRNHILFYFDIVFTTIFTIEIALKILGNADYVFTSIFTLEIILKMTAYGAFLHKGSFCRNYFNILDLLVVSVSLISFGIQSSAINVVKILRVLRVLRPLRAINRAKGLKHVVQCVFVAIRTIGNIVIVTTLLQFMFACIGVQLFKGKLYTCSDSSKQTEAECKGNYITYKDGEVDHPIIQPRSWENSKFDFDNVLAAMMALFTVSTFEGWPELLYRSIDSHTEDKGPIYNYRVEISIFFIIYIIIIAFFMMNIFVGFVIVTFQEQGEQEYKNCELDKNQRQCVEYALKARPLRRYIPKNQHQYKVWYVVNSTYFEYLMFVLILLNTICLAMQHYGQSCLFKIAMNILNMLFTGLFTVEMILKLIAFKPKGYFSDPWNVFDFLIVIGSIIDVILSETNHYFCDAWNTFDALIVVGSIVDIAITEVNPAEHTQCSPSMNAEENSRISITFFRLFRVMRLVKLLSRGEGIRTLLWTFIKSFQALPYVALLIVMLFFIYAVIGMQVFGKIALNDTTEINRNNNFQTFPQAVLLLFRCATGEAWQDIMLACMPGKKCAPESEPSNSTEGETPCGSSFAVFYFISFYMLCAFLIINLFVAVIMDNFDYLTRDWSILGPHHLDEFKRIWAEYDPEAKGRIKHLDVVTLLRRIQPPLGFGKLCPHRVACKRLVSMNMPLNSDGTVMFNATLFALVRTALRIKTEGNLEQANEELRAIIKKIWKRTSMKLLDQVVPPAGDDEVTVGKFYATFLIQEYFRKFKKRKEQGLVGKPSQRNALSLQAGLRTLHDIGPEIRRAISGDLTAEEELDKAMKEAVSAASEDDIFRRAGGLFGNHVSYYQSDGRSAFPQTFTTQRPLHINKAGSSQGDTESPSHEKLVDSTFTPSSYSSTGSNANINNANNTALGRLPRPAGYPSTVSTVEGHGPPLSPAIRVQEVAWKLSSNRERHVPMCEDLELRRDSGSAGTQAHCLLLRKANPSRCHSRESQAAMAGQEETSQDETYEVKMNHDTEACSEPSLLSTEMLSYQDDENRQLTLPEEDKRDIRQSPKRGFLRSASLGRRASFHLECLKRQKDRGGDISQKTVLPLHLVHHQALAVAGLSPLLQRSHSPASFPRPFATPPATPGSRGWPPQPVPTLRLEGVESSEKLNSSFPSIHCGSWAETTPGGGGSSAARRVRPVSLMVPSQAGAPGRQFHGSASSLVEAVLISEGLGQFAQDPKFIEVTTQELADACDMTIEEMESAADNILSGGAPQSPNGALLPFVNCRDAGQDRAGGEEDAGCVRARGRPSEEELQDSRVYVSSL

Ki (Protein O-GlcNAcase): 7.9 nM
fraction unbound at 1 µM [2]: > 0.99
AUC/dose [3]: 1.4 µM·kg·h/mg
fraction unbound at 2.5 µM [4]: 0.97
AUC [5]: 9.64 nM·h/g
Kp at 8 h [6]: 1.84
blood plasma ratio [7]: 0.9 to 1.1
Vd [10]: 2.4 L/kg
AUC at 24 h [13]: 1340 µM·h
AUC/dose [14]: 14.2 µM·kg·h/mg
fraction unbound [15]: > 0.95
AUC/dose [17]: 0.61 µM·kg·h/mg
clearance [18]: 11.7 mL/min/kg
blood plasma ratio [19]: 0.9 to 1.1
bioavailability [20]: 80%
Drug uptake [21]: 0.088 nmol/g
fraction unbound at 2.5 µM [22]: 0.99
inhibition at 30 µM (IKs (KCNQ1)): < 50%
blood plasma ratio [23]: 0.9 to 1.1
fraction unbound [24]: > 0.95
Structure (SMILES): CCNC1=N[C@@H]2[C@@H](O)[C@H](O)[C@@H](C(F)F)O[C@@H]2S1
Cmax [1]: 660 µM
inhibition at 30 µM (Cav1.2): < 50%
fold change (FC) (Rattus norvegicus [8]): 2.17
Activity (Rattus norvegicus [9]): Non-Toxic
Activity [11]: Non-Toxic
Activity [12]: Non-Toxic
inhibition at 30 µM (Nav1.5): < 50%
fold change (FC) (Rattus norvegicus [16]): 2.57
